# Experimental data: patent publication US10662204B2 (PFIZER INC., priority 2018, dated 2020)
# Assays:
# KRAS G12C = KRAS G12C (Homo sapiens, UniProt P01116, G12C); assay: Cell Activity Assay: accumulation of GDP-bound KRAS G12C in MIAPaCa-2 cells (Raf-1 RBD capture, MSD readout); type: cell-based; set-up: endogenous in cells; host or cells: MIAPaCa-2; settings: 6 hours, assay limit is 30.00
# Procedure, shortened: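 MIAPaCa-2 cells exposed 6 h at 37 °C to 3-fold compound dilutions (0.3% DMSO final), then lysed. Active GTP-KRAS captured on Raf-1 RBD-coated plates, detected with anti-pan-Ras and SULFO-TAG secondary by MSD electrochemiluminescence. Signal normalized to DMSO and maximum inhibition; IC50 from 4-parameter fit.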
# [1] = molecular target: T1, GDP-loaded KRAS (1-169) G12C, C51S, C80L, C118S (Homo sapiens, UniProt P01116, C118S/C51S/C80L/G12C); assay: Mass Spectrometry Reactivity Assay (MSRA): covalent adduct of compound and KRAS G12C, Percent Modification; type: binding; settings: for MSRA (% modification) 10 μM 0.50 hr / MSRA (% modification) 10 μM 0.25 hr: 10 μM compound; for MSRA (% modification) 5.0 μM 0.017 hr / MSRA (% modification) 5.0 μM 0.25 hr: 5.0 μM compound
# T1 construct: GDP-loaded KRAS (1-169) G12C, C51S, C80L, C118S
# Procedure, shortened: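 GDP-loaded KRAS(1-169) G12C/C51S/C80L/C118S at 5 μM in 25 mM Hepes pH 7.5, 200 mM NaCl, 5% glycerol incubated at RT with compound (typically 5 or 10 μM final, 1% DMSO). Quenched in formic acid at 1-60 min; intact-protein LC-TOF MS gives % modification = modified/(modified+unmodified).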
Compound,IC50 (KRAS G12C),MSRA (% modification) 10 μM 0.50 hr [1],MSRA (% modification) 5.0 μM 0.017 hr [1],MSRA (% modification) 5.0 μM 0.25 hr [1],MSRA (% modification) 10 μM 0.25 hr [1]
"C=CC(=O)N1CCN(c2nc(N3CC[C@@H](N(C)C)C3)nc3c(Oc4c(C)ccc5[nH]ncc45)cccc23)CC1 [Example 09E, 1-(4-{2-[(3R)-3-(dimethylamino)pyrrolidin-1-yl]-8-[(5-methyl-1H-indazol-4-yl)oxy]quinazolin-4-yl}piperazin-1-yl)prop-2-en-1-one]",7.4 µM,24%,,,
"C=CC(=O)N1CCN(c2ncnc3c(Oc4cc(O)cc5ccccc45)nc(C(F)(F)F)cc23)CC1 [Example 01, 1-(4-{8-[(3-hydroxynaphthalen-1-yl)oxy]-6-(trifluoromethyl)pyrido[3,4-d]pyrimidin-4-yl}piperazin-1-yl)prop-2-en-1-one]",> 30 µM,27%,,,
"C=CC(=O)N1CCN(c2nc(Oc3cccc4c3CCN(C(C)C)C4)nc3c(Oc4c(Cl)c(F)cc5[nH]ncc45)nccc23)CC1 [Example 19I, 1-[4-(8-[(5-chloro-6-fluoro-1H-indazol-4-yl)oxy]-2-{[2-(propan-2-yl)-1,2,3,4-tetrahydro-isoquinolin-5-yl]oxy}pyrido [3,4-d]pyrimidin-4-yl)piperazin-1-yl]prop-2-en-1-one]",0.003 µM,,82%,,
"C=CC(=O)N1CCN(c2nc(OCC(C)(C)O)nc3c(Oc4c(Cl)c(F)cc5[nH]ncc45)nc(Cl)cc23)CC1 [Example 13G, 1-(4-{6-chloro-8-[(5-chloro-6-fluoro-1H-indazol-4-yl)oxy]-2-(2-hydroxy-2-methylpropoxy)pyrido[3,4-d]pyrimidin-4-yl}piperazin-1-yl)prop-2-en-1-one]",0.16 µM,80%,,70%,78%
"C=CC(=O)N1CCN(c2ncnc3c(Oc4c(C)ccc5[nH]ncc45)nccc23)CC1 [Example 01A, 1-(4-{8-[(5-methyl-1H-indazol-4-yl)oxy]pyrido[3,4-d]pyrimidin-4-yl}piperazin-1-yl)prop-2-en-1-one]",11.8 µM,11%,,,
"C#CCCN1C[C@@H](OC)[C@H](Oc2nc(N3CCN(C(=O)C=C)CC3)c3cc(Cl)nc(Oc4c(Cl)c(F)cc5[nH]ncc45)c3n2)C1 [Example 39G, 1-[4-(2-{[(3R,4R)-1-(but-3-yn-1-yl)-4-methoxypyrrolidin-3-yl]oxy}-6-chloro-8-[(5-chloro-6-fluoro-1H-indazol-4-yl)oxy]pyrido[3,4-d]pyrimidin-4-yl)piperazin-1-yl]prop-2-en-1-one]",0.014 µM,,76%,,
"C=CC(=O)N1CCN(c2nc(OC[C@@H]3CCCN3C)nc3c(Oc4c(Cl)c(C)cc5[nH]ncc45)nc(Cl)cc23)CC1 [Example 06G, 1-[4-(6-chloro-8-[(5-chloro-6-methyl-1H-indazol-4-yl)oxy]-2-{[(2S)-1-methylpyrrolidin-2-yl]methoxy}pyrido[3,4-d]pyrimidin-4-yl)piperazin-1-yl]prop-2-en-1-one]",0.064 µM,,23%,52%,82%
"C=CC(=O)N1CCN(c2nc(N(C)CCC(=O)NC)nc3c(Oc4c(C)ccc5[nH]ncc45)cccc23)CC1 [Example 14F, N^3-{4-(4-acryloylpiperazin-1-yl)-8-[(5-methyl-1H-indazol-4-yl)oxy]quinazolin-2-yl}-N,N^3-dimethyl-β-alaninamide]",29 µM,12%,,,
"C=CC(=O)N1CCN(c2nc(N3CC(C)(C#N)C3)nc3c(Oc4c(Cl)c(F)cc5[nH]ncc45)nc(Cl)cc23)CC1 [Example 02G, 1-{4-(4-acryloylpiperazin-1-yl)-6-chloro-8-[(5-chloro-6-fluoro-1H-indazol-4-yl)oxy]pyrido[3,4-d]pyrimidin-2-yl}-3-methylazetidine-3-carbonitrile]",0.584 µM,,,73%,75%
"C=CC(=O)N1CCN(c2nc(N3CC(N(C)C)C3)nc3c(Oc4c(Cl)c(C)cc5[nH]ncc45)nc(C)cc23)CC1 [Example 01E, 1-(4-{8-[(5-Chloro-6-methyl-1H-indazol-4-yl)oxy]-2-[3-(dimethylamino)azetidin-1-yl]-6-methylpyrido[3,4-d]pyrimidin-4-yl}piperazin-1-yl)prop-2-en-1-one]",2.41 µM,29%,,,
"C=CC(=O)N1CCN(c2nc(NCCC(=O)N(C)C)nc3c(Oc4c(C)ccc5[nH]ncc45)cccc23)CC1 [Example 06F, N^3-{4-(4-acryloylpiperazin-1-yl)-8-[(5-methyl-1H-indazol-4-yl)oxy]quinazolin-2-yl}-N,N-dimethyl-β-alaninamide]",3.24 µM,46%,,,
C=CC(=O)N1CCN(c2nc(O[C@@H]3CN(C)C[C@H]3OC)nc3c(Oc4c(Cl)ccc5[nH]ncc45)nccc23)CC1 [Example 49I],0.17 µM,,34%,,
"C=CC(=O)N1CCN(c2ncnc3c(Oc4c(F)c(C)c(F)c5[nH]ncc45)nccc23)CC1 [Example 16A, 1-(4-{8-[(5,7-difluoro-6-methyl-1H-indazol-4-yl)oxy]pyrido[3,4-d]pyrimidin-4-yl}piperazin-1-yl)prop-2-en-1-one]",29.6 µM,7%,,,
"C=CC(=O)N1CCN(c2ncnc3c(Oc4c(Cl)ccc5[nH]ncc45)nccc23)CC1 [Example 06A, 1-(4-{8-[(5-chloro-1H-indazol-4-yl)oxy]pyrido[3,4-d]pyrimidin-4-yl}piperazin-1-yl)prop-2-en-1-one]",6.75 µM,26%,,,
"C=CC(=O)N1CCN(c2nc(OC[C@H]3COCCN3C)nc3c(Oc4c(Cl)c(F)cc5[nH]ncc45)nc(Cl)cc23)CC1 [Example 08G, 1-[4-(6-chloro-8-[(5-chloro-6-fluoro-1H-indazol-4-yl)oxy]-2-{[(3R)-4-methylmorpholin-3-yl]methoxy}pyrido[3,4-d]pyrimidin-4-yl)piperazin-1-yl]prop-2-en-1-one]",0.148 µM,,,,80%
"C=CC(=O)N1CCN(c2ncnc3c(Oc4c(C)ccc5[nH]ncc45)nc(C(F)(F)F)cc23)CC1 [Example 03A, 1-(4-{8-[(5-methyl-1H-indazol-4-yl)oxy]-6-(trifluoromethyl)pyrido[3,4-d]pyrimidin-4-yl}piperazin-1-yl)prop-2-en-1-one]",2.74 µM,28%,,,
"C=CC(=O)N1CCN(c2nc(Oc3cccc4c3CCN(C)C4)nc3c(Oc4c(Cl)c(F)cc5[nH]ncc45)nccc23)CC1 [Example 22I, 1-(4-{8-[(5-chloro-6-fluoro-1H-indazol-4-yl)oxy]-2-[(2-methyl-1,2,3,4-tetrahydro-isoquinolin-5-yl)oxy]pyrido [3,4-d]pyrimidin-4-yl}piperazin-1-yl)prop-2-en-1-one]",0.003 µM,,80%,,
"C=CC(=O)N1CCN(c2nc(OC[C@@H]3C[C@H](OC)CN3C)nc3c(Oc4c(Cl)c(F)cc5[nH]ncc45)nccc23)CC1 [Example 12H, 1-[4-(8-[(5-chloro-6-fluoro-1H-indazol-4-yl)oxy]-2-{[(2S,4S)-4-methoxy-1-methylpyrrolidin-2-yl]methoxy}pyrido[3,4-d]pyrimidin-4-yl)piperazin-1-yl]prop-2-en-1-one]",0.691 µM,,,49%,67%
